Key:
[1] = test system: rat annulus fibrosus cells; assay: Intracellular level of reactive oxygen species (MitoTracker Orange staining, cell sorter); type: cell-based
Description: (§1) Rat annulus fibrosus cells were prepared as follows: rat annulus fibrosus tissues were dissected from the lumbar and coccyx intervertebral discs of 8-week-old female Wistar rats, treated with DMEM containing 0.04% pronase E (manufactured by SERVA Electrophoresis GmbH) at 37°C for 1 hour, and subsequently treated with 0.025% collagenase P (manufactured by Roche Diagnostics K.K.) at 37°C for 4 hours for isolation. The isolated cells were washed with Dulbecco's modified Eagle's medium (DMEM, manufactured by Invitrogen Corp.) containing 5% heat-inactivated fetal bovine serum (manufactured by JRH Biosciences Lenexa). The isolated annulus fibrosus cells were cultured in DMEM containing 10% fetal bovine serum and 1% penicillin-streptomycin under conditions of 5% CO2 at 37°C. The cells were used within the first five passages for analysis.

[2] = test system: rat annulus fibrosus cells; assay: Alteration in gene expression by oxidative stress inducers (RT-PCR); type: cell-based; details: 24 hours
Description: (§2) Total RNA was prepared using RNeasy Mini kit (manufactured by Qiagen N.V.) or TRIzol Reagent (manufactured by Thermo Fisher Scientific Inc.). cDNA was synthesized using Prime Script RT Reagent Kit (manufactured by Takara Bio Inc.).
(§3) RT-PCR amplification was performed with Thermal Cycler Dice Real-Time System (manufactured by Takara Bio Inc.) using SYBR Premix Ex Taq (manufactured by Takara Bio Inc.). Expression was normalized to β-actin or hypoxanthine phosphoribosyl transferase (HPRT). The results were analyzed by the ddCt method.
(§4) The PCR primers used were as follows: • TNF-α (F) : 5'-[…]-3' (SEQ ID NO: 1) (R) : 5'-[…]-3' (SEQ ID NO: 2) • MMP-3 (F) : 5'-[…]-3' (SEQ ID NO: 3) (R) : 5'-[…]-3' (SEQ ID NO: 4) • COX-2 (F) : 5'-[…]-3' (SEQ ID NO: 5) (R) : 5'-[…]-3' (SEQ ID NO: 6) • AGC1 (F) : 5'-[…]-3' (SEQ ID NO: 7) (R) : 5'-[…]-3' (SEQ ID NO: 8) • β-actin (F) : 5'-[…]-3' (SEQ ID NO: 9) (R) : 5'-[…]-3' (SEQ ID NO: 10) • HPRT (F) : 5'-[…]-3' (SEQ ID NO: 11) (R) : 5'-[…]-3' (SEQ ID NO: 12)
as §1
Rat annulus fibrosus cells were cultured in a medium added with hydrogen peroxide (concentration: 10 µM and 100 µM) or BSO (concentration: 0.2 mM and 1 mM) for 24 hours and collected. RNA was extracted, and the mRNA expression of TNF-α, MMP-3, COX-2, and aggrecan was quantitatively measured by RT-PCR. RNA extraction and RT-PCR were performed in the same way as in the model animals described above.

[3] = test system: MAPKs (p38, ERK, and JNK); assay: MAPK phosphorylation after oxidative stress (Western blotting); type: cell-based, rat; details: for phosphorylation of the MAPKs p38, ERK, and JNK: 10 minutes after treatment
Description: Western blotting was performed by a standard method.
Downstream signals of oxidative stress were studied. The involvement of MAPKs (p38, ERK, and JNK) in the downstream system of signals induced by reactive oxygen species was analyzed. […] Protein extraction and Western blotting were performed in the same way as in the experiment using the animal models described above.
Detection was performed using an anti-p38 antibody, an anti-phosphorylated p38 antibody, an anti-JNK antibody, an anti-phosphorylated JNK antibody, an anti-ERK antibody, an anti-phosphorylated ERK antibody, an anti-NF-KB p65 antibody, an anti-phosphorylated NF-κB p65 antibody, or an anti-β-actin antibody (all manufactured by Cell Signaling Technology, Inc.) as a primary antibody, a HRP-conjugated goat anti-rabbit antibody (manufactured by Sigma-Aldrich Co. LLC) as a secondary antibody, and ECL Western Blotting Detection Reagent.
Likewise, downstream signals of oxidative stress were studied by the addition of BSO. Annulus fibrosus cells were treated with 1 mM BSO, collected 0, 5, 10, 30, or 60 minutes later, and analyzed by Western blotting.

[4] = test system: rat annulus fibrosus cells; assay: Effect of antioxidants on gene expression under oxidative stress induced by hydrogen peroxide or BSO (RT-PCR); type: cell-based; details: 24 hours
Description: as §2, §3, §4
100 µM hydrogen peroxide or 1 mM BSO was added to rat annulus fibrosus cells in the presence of 100 µM NAC, and the cells were cultured for 24 hours, followed by the measurement of the mRNA expression of TNF-α, MMP-3, COX-2, and aggrecan (Figures 4A and 4B).
Hydrogen peroxide or BSO was added to rat annulus fibrosus cells in the presence of 20 mM α-tocopherol, and the cells were cultured for 24 hours, followed by the measurement of the mRNA expression of TNF-α, MMP-3, COX-2, and aggrecan (Figures 5A and 5B). Here, ethanol was used as a solvent for α-tocopherol. Cells cultured in a medium added only with ethanol were used as a control.

[5] = test system: rat annulus fibrosus cells; assay: Effect of antioxidants on oxidative stress induced by TNF-α (gene expression by RT-PCR); type: cell-based; details: 24 hours
Description: Next, NAC or tocopherol was analyzed for whether to reduce oxidative stress induced by TNF-α by its addition. 50 ng/ml of TNF-α was added to cells in the presence of 100 µM NAC or 20 mM α-tocopherol, and the cells were collected 24 hours later, followed by gene expression analysis on MMP-3, COX-2, and aggrecan by RT-PCR (Figures 6C and 6D). NAC and tocopherol were also shown to suppress oxidative stress induced by the addition of TNF-α.

[6] = test system: MAPK signaling cascade; assay: Effect on MAPK signaling cascade activation caused by TNF-α (Western blotting); type: cell-based, rat; details: 50 ng/ml TNF-α in the presence of 100 µM NAC
Description: NAC was also analyzed for whether to suppress phosphorylation in the MAPK signaling cascade generating downstream signals of oxidative stress (Figure 6E). In the same way as above, cells were treated with 50 ng/ml TNF-α in the presence of 100 µM NAC and analyzed by Western blotting.

[7] = test system: intervertebral disc degeneration models; assay: Rat caudal intervertebral disc puncture model, therapeutic administration, T2-weighted MRI; type: in vivo, Wistar rats
Description: The involvement of oxidative stress in intervertebral disc degeneration was studied. The caudal intervertebral discs of 8-week-old Wistar rats were punctured using a 23-G needle to prepare intervertebral disc degeneration models. A group that underwent only development without puncture (sham group) was used as a control group. Two months after the puncture, the T2 intramedullary high-intensity area was measured by MRI (GE Sigma Excite HD 1.5T, manufactured by GE Healthcare Corp.) under the following conditions: TR/TE, 3000/86; echo train length, 12; slice thickness, 2 mm; FOV, 10 cm; matrix size 352X224; NEX, 10 times.
The caudal intervertebral discs of 8-week-old female Wistar rats were punctured using a 23-G needle to prepare intervertebral disc degeneration models. The animals were divided into a group given NAC water (1 g/L) from 1 week after the puncture (NAC group) and a group raised with normal water (puncture group). A group that underwent only development without puncture (control group) was used as a control. Whether or not the administration of NAC would suppress intervertebral disc degeneration was studied 2 months after the puncture (see Figure 7A). The average body weight of the rats during the administration of NAC water was 220 g, and the average water intake of 24 hours was 35 g; thus, the rats took 159 mg/kg/day of NAC on average per day. The items to be studied were histological evaluation and a T2 intramedullary high-intensity area by MRI.
(§5) The present inventors prepared rat intervertebral disc degeneration models in the same way as above and conducted QSI analysis. Here, the QSI analysis was conducted using our uniquely developed program, though the analysis can employ software such as dTV II FZR. A puncture group, a NAC group, and a control group each involving 5 rats were subjected to the respective procedures and analyzed. […] The comparison of analysis results among the control group (a and d), the puncture group (b and e), and the NAC group (c and f) is shown.

[8] = test system: intervertebral disc degeneration models; assay: Rat caudal intervertebral disc puncture model, Q-space imaging (QSI) analysis; type: in vivo
Description: as §5

[9] = test system: intervertebral disc degeneration; details: procedures for causing degeneration carried out after 1-week oral administration; Non Patent Literature 5; cited from earlier work
[10] = test system: COX-2 mRNA expression; assay: Effect of MAPK inhibitors on COX-2 gene expression under oxidative stress (RT-PCR); type: cell-based, rat; details: MAPK inhibitor 10 µM, 30 minutes later 100 µM hydrogen peroxide or 1 mM BSO; RT-PCR 24 hours later
Description: Hydrogen peroxide or BSO was added to rat annulus fibrosus cells in the presence of MAPK inhibitors, and their effects on an increase in COX-2 mRNA expression were analyzed. The MAPK inhibitors used were PD98059 (ERK inhibitor; represented by PD in Figure 3), SP600125 (JNK inhibitor; represented by SP in Figure 3), and SB203580 (p38 inhibitor; represented by SB in Figure 3) (all manufactured by Wako Pure Chemical Industries, Ltd.). These MAPK inhibitors were each added at concentration of 10 µM to a medium, and 30 minutes later, 100 µM hydrogen peroxide or 1 mM BSO was added thereto. The expression of COX-2 was analyzed by RT-PCR 24 hours later.

[11] = 100 µM NAC, 100 µM hydrogen peroxide or 1 mM BSO
[12] = puncture group versus NAC group
[13] = hydrogen peroxide 10 µM and 100 µM
[14] = 20 mM α-tocopherol, hydrogen peroxide or BSO, ethanol control

CCCCS(=N)(=O)CCC(N)C(=O)O (stereo not drawn) [BSO, buthionine sulfoximine]
intracellular level of reactive oxygen species ([1]; 1 mM BSO for 24 hours): increase | mRNA expression of COX-2 ([2]; BSO 0.2 mM and 1 mM): concentration-dependent increase | mRNA expression of MMP-3 ([2]; BSO 0.2 mM and 1 mM): concentration-dependent increase | mRNA expression of TNF-α ([2]; BSO 0.2 mM and 1 mM): concentration-dependent increase | mRNA expression of aggrecan ([2]; BSO 0.2 mM and 1 mM): reduced in a concentration-dependent manner | phosphorylation of the MAPKs p38, ERK, and JNK ([3]; 1 mM BSO): strongly phosphorylated

CC(=O)N[C@@H](CS)C(=O)O [NAC, N-acetylcysteine]
phosphorylation of p38 MAPK ([3]; 100 µM hydrogen peroxide in the presence of 100 µM NAC, 15 minutes): significantly suppressed | increase in the expression of COX-2 by oxidative stress [4, 11]: significantly suppressed | increase in the expression of MMP-3 by oxidative stress [4, 11]: significantly suppressed | increase in the expression of TNF-α by oxidative stress [4, 11]: significantly suppressed | reduction in the expression of aggrecan by oxidative stress [4, 11]: suppressed | oxidative stress induced by the addition of TNF-α (gene expression of MMP-3, COX-2, and aggrecan) ([5]; 50 ng/ml TNF-α in the presence of 100 µM NAC): suppress | activation of the MAPK signaling cascade caused by stimulation with TNF-α [6]: suppressed | effect of administration in an experiment using rats ([7]; 159 mg/kg/day): effective | T2-weighted images, difference between the puncture group and the NAC group ([7]; 5 rats per group): rarely showed the difference | T2 high-intensity area ([7]; NAC water (1 g/L, 159 mg/kg/day) from 1 week after puncture, MRI 2 months after puncture, NAC group compared with puncture group): significantly improved | T2 mapping values obtained from T2-weighted images focused on the nucleus pulposus [7, 12]: did not significantly differ | QSI analysis (probability at zero displacement), difference between the puncture group and the NAC group ([8]; 5 rats per group): showed the difference | QSI parameter values [8, 12]: significant difference | intervertebral disc degeneration [9]: prevented

COc1cccc(-c2cc(=O)c3ccccc3o2)c1N [PD]
expression of COX-2 [10]: significantly suppressed

C[S+]([O-])c1ccc(-c2nc(-c3ccncc3)c(-c3ccc(F)cc3)[nH]2)cc1 (stereo not drawn) [SB]
expression of COX-2 [10]: significantly suppressed

OO [hydrogen peroxide]
intracellular level of reactive oxygen species ([1]; 100 µM hydrogen peroxide for 24 hours): increase | mRNA expression of COX-2 [2, 13]: concentration-dependent increase | mRNA expression of MMP-3 [2, 13]: concentration-dependent increase | mRNA expression of TNF-α [2, 13]: concentration-dependent increase | mRNA expression of aggrecan [2, 13]: reduced in a concentration-dependent manner | phosphorylation of the MAPKs p38, ERK, and JNK ([3]; 100 µM hydrogen peroxide): strongly phosphorylated

Cc1c(C)c2c(c(C)c1O)CCC(C)(CCCC(C)CCCC(C)CCCC(C)C)O2 (stereo not drawn) [α-tocopherol]
increase in the expression of COX-2 by oxidative stress [4, 14]: significantly suppressed | increase in the expression of MMP-3 by oxidative stress [4, 14]: significantly suppressed | increase in the expression of TNF-α by oxidative stress [4, 14]: significantly suppressed | reduction in the expression of aggrecan by oxidative stress [4, 14]: suppressed | oxidative stress induced by the addition of TNF-α (gene expression of MMP-3, COX-2, and aggrecan) ([5]; 50 ng/ml TNF-α in the presence of 20 mM α-tocopherol): suppress
